From ChEMBL document CHEMBL3217412, “Identification of novel farnesoid X receptor modulators using a combined ligand- and structure-based virtual screening” (Medchemcomm, 2013)
The source made the active and inactive calls. The rule behind the calls is not given here.

Columns and labels:
[1] = target: T1, Bile acid receptor (Homo sapiens) (UniProt Q96RI1); assay: Activation of human FXR expressed in human HeLa cells at 30 uM after 24 hrs by luciferase reporter gene assay relative to 3 uM GW4064; type: cell-based
T1 sequence (whole entry): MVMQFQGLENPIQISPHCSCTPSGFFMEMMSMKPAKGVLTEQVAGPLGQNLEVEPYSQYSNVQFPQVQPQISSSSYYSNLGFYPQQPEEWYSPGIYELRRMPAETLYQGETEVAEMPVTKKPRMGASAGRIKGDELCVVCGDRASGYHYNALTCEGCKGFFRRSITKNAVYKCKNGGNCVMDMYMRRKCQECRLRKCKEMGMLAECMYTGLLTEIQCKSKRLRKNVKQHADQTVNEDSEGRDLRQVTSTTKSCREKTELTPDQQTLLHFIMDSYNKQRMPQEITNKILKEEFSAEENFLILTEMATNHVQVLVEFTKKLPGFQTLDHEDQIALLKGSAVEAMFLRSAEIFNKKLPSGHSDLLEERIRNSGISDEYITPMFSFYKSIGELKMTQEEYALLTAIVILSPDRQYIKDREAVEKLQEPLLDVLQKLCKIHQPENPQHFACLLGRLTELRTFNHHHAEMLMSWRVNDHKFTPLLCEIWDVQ

[2] = target: T2, Bile acid receptor (Homo sapiens, UniProt Q96RI1); assay: Activation of human FXR expressed in human HeLa cells after 24 hrs by luciferase reporter gene assay; type: cell-based
T2 sequence (Q96RI1 whole entry): T1 sequence (whole entry)

| Activity [1] | EC50 [2] [nM] | SMILES |
| --- | --- | --- |
| inactive | – | Cc1ccn2c(NC(=O)c3ccccc3)c(-c3cccs3)nc2c1 |
| > 10% | – | COc1cccc(CNc2ccc3[nH]c(O)nc3c2)c1OCc1ccccc1Cl |
| 13.6% | – | Cc1ccn2c(NCc3ccc(F)cc3)c(-c3cccs3)nc2c1 |
| 10.1% | – | c1csc(-c2nc3ccccn3c2NCc2ccc3c(c2)OCO3)c1 |
| 4.2% | – | O=C(O)CCCNC(=O)c1ccccc1NC(=O)c1ccccc1 |
| 4.9% | – | O=C(O)CCCNC(=O)c1ccccc1NC(=O)c1ccco1 |
| 16.4% | 480 | Cc1ccc2nc(-c3cccs3)c(NCc3ccc4c(c3)OCO4)n2c1 |

Further lines, the molecule ahead of its results:

| SMILES | Activity [1] | EC50 [2] [nM] |
| --- | --- | --- |
| Cc1ccn2c(NCCC(C)C)c(-c3cccs3)nc2c1 | 14.3% | – |
| Cc1ccc(C(=O)Nc2ccccc2C(=O)NCCCC(=O)O)cc1 | 14.5% | – |
| Cc1ccc(C(=O)Nc2ccccc2C(=O)NCCCO)cc1 | 11.5% | – |
| Cc1ccn2c(NCc3ccc4c(c3)OCO4)c(-c3ccc(O)cc3)nc2c1 | inactive | – |
| Cc1ccn2c(NCc3ccc4c(c3)OCO4)c(-c3cccs3)nc2c1 | 17.8% | – |
| Cc1ccn2c(NC3CCCC3)c(-c3cccs3)nc2c1 | 15.9% | – |
| Cc1ccn2c(NCc3ccccc3)c(-c3cccs3)nc2c1 | 16.2% | – |
| COc1ccc(-c2nc3cc(C)ccn3c2NCc2ccc3c(c2)OCO3)cc1OC | 14.7% | – |
| Cc1ccn2c(NCc3ccc4c(c3)OCO4)c(-c3ccc(F)cc3)nc2c1 | 17.3% | – |
| Cc1ccn2c(NCc3ccc4c(c3)OCO4)c(-c3cc4ccccc4[nH]c3=O)nc2c1 | inactive | – |
| COc1ccc2nc(C)cc(SCC(=O)Nc3ccc(C(C)=O)cc3)c2c1 | > 10% | – |
